Drawing on patent US10538497B2, “Compounds as indoleamine 2,3-dioxygenase inhibitors” (Merck Sharp & Dohme Corp., priority 2015, dated 2020), this text covers IC50 for 23 compounds.

Assay [1] addresses T1, IDO1 (Homo sapiens (Human), UniProt P14902). The assay can be described thus: IDO1 Enzyme Assay. Particulars: HIS-tagged recombinant IDO1, 40 nM.
The target in assay [2] is T1, IDO1. The assay can be described thus: IDO1 Cellular Assay in Frozen HEK293 Cells Transiently Transfected with Human IDO1. In kind it is cell-based. Particulars: HEK293 cells transiently transfected with human IDO1; read-out: IDO1 HEK293 Cell Assay, IC50. How it is done:
IDO1 Cellular Assay in Frozen HEK293 Cells Transiently Transfected with Human IDO1
HEK293 cells were cultured in complete HEK293 culture medium (90% DMEM, 10% heat-inactivated fetal bovine serum). When reaching sub-confluent, the cells were trypsinized and neutralized with complete medium. […] Flag-IDO1 plasmid was added to the cell suspension at a concentration of 100 μg/mL. The cell-plasmid solutions were transferred to the OC-400 processing assembly (Maxcyte), 400 l/unit and the units were placed in a Maxcyte instrument to carry out flow electroporation for transfection. The cells were then transferred to a sterile 24-well cell culture plate to recover for 20-30 min at 37° C. in an incubator with 5% CO2.
Frozen HEK293/IDO1 and HEK293 WT cells were thawed and transferred into HEK293 assay medium (99% complete HEK293 culture medium, 1% Pen/Strep) with 20 mL medium/vial of cells. The cells were spun down at 250 g in a table top centrifuge for 5 min and suspended in same volume of HEK293 assay medium. […] Sterile L-tryptophan were added to the cells with final concentration of 300 μM.
HEK293/IDO1 and HEK293 WT cells were dispensed to the respective wells of 384-well assay plates containing the compounds. The plates were incubated for about 28-30 h at a 37° C., 5% CO2 incubator. […] The plates were centrifuged for 1 min at 200×g. The resulting fluorescence was measured in a Spectramax plate reader (Molecular Devices) with a 400 nm excitation filter and a 510 nm emission filter.

Assay [3] deals with T1, IDO1. Kind of assay: IDO1 Cellular Assay in Hela Cells Stimulated with IFNγ. The format is cell-based. The note with it: Hela cells stimulated with IFNγ 100 ng/mL; read-out: IDO1 HELA Cell Assay, IC50.
Where [4] appears, read: read-out: IDO1 Enzyme Assay, IC50.

SMILES strings stand for the structures.

T1 sequence (P14902 whole entry): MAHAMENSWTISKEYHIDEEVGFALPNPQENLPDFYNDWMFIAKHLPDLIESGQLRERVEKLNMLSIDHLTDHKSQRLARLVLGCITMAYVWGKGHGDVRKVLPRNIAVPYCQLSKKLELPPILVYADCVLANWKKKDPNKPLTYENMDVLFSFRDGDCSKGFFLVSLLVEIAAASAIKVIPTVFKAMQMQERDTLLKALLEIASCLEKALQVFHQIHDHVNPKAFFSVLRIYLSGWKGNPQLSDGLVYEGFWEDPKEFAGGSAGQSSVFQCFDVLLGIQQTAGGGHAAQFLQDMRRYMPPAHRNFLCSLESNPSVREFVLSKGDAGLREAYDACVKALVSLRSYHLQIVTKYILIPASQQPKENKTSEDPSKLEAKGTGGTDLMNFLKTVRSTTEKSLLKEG

For orientation: IC50 means the point on the concentration scale where inhibition reaches its midpoint. With `NCCSc1nonc1/C(=N/O)Nc1ccc(F)c(Br)c1` [Example 2, (Z)-2-((4-(N-(3-Bromo-4-fluorophenyl)-N′-hydroxycarbamimidoyl)-1,2,5-oxadiazol-3-yl)thio)ethan-1-aminium chloride], the figures for the concentration for half-maximal inhibition (IC50) in assay [1] (setting [4]), in assay [2] and in assay [3] were 48.1 nM, 216 nM and 77.5 nM, respectively.

In the case of `CNC(=O)N1CCC(Sc2nonc2/C(=N/O)Nc2ccc(F)c(Br)c2)CC1` [Example 104, 4-({4-[N-(3-bromo-4-fluorophenyl)-N′-hydroxycarbamimidoyl]-1,2,5-oxadiazol-3-yl}sulfanyl)-N-methylpiperidine-1-carboxamide], the results for the half-maximal inhibitory concentration (IC50) in assay [1] (setting [4]), in assay [2] and in assay [3] were 169 nM, 269 nM and 353 nM, respectively.

On to `O=C1NCC(CSc2nonc2/C(=N/O)Nc2ccc(F)c(Br)c2)O1` (stereo not drawn) [Example 124, N-(3-bromo-4-fluorophenyl)-N′-hydroxy-4-{[(2-oxo-1,3-oxazolidin-5-yl)methyl]sulfanyl}-1,2,5-oxadiazole-3-carboximidamide], for which the concentration for half-maximal inhibition (IC50) in assay [1] (setting [4]) was 34.5 nM; in assay [2], 65.6 nM; in assay [3], 56.2 nM.

`O=C(CSc1nonc1C(=NO)Nc1ccc(F)c(Br)c1)NCCO` [Example 112, 2-({4-[N-(3-bromo-4-fluorophenyl)-N′-hydroxycarbamimidoyl]-1,2,5-oxadiazol-3-yl}sulfanyl)-N-(2-hydroxyethyl)acetamide]: the half-inhibitory concentration (IC50) in assay [1] (IDO1 Enzyme Assay, IC50, nM) came out at 54.2 nM; in assay [2] it was 40 nM; in assay [3] it was 40.8 nM.

Consider `N#Cc1cc(N/C(=N\O)c2nonc2SCCNC(=O)[C@H]2CC2(F)F)ccc1F` [Example 187, (1R)-N-[2-({4-[N-(3-cyano-4-fluorophenyl)-N′-hydroxycarbamimidoyl]-1,2,5-oxadiazol-3-yl}sulfanyl)ethyl]-2,2-difluorocyclopropanecarboxamide], for which the IC50 amounted to 86 nM in assay [1] (setting [4]), 140 nM in assay [2] and 272 nM in assay [3].

As for `CN1CCOC(CSc2nonc2/C(=N/O)Nc2ccc(F)c(Br)c2)C1` (stereo not drawn) [Example 78, N-(3-bromo-4-fluorophenyl)-N′-hydroxy-4-{[(4-methylmorpholin-2-yl)methyl]sulfanyl}-1,2,5-oxadiazole-3-carboximidamide], the concentration for half-maximal inhibition (IC50) in assay [1] (setting [4]) was found to be 90.9 nM; in assay [2], 101 nM; in assay [3], 57.7 nM.

`CC(O)C(CO)NC(=O)CSc1nonc1/C(=N/O)Nc1ccc(F)c(Br)c1` (stereo not drawn) [Example 176, 2-({4-[N-(3-bromo-4-fluorophenyl)-N′-hydroxycarbamimidoyl]-1,2,5-oxadiazol-3-yl}sulfanyl)-N-[2-hydroxy-1-(hydroxymethyl)propyl]acetamide]: the figures for the half-maximal inhibitory concentration (IC50) in assay [1] (setting [4]), in assay [2] and in assay [3] were 116 nM, 182 nM and 127 nM, respectively.

Regarding `N#C/N=C(\N)NCCSc1nonc1/C(=N/O)Nc1ccc(F)c(Br)c1` [Example 85, N-(3-bromo-4-fluorophenyl)-4-{[2-(N″- cyanocarbamimidamido)ethyl]sulfanyl}-N′-hydroxy-1,2,5-oxadiazole-3-carboximidamide], the IC50 is 39.3 nM in assay [1] (setting [4]), 35.7 nM in assay [2] and 16.9 nM in assay [3].

Regarding `CNC(=O)N1CC(Sc2nonc2/C(=N/O)Nc2ccc(F)c(Br)c2)C1` [Example 81, 3-({4-[N-(3-bromo-4-fluorophenyl)-N′-hydroxycarbamimidoyl]-1,2,5-oxadiazol-3-yl}sulfanyl)-N-methylazetidine-1-carboxamide], the IC50 is 41.8 nM in assay [1] (setting [4]), 36.9 nM in assay [2] and 42.9 nM in assay [3].

Turning to `O=c1[nH]nc(CCSc2nonc2/C(=N/O)Nc2ccc(F)c(Br)c2)o1` [Example 141, N-(3-bromo-4-fluorophenyl)-N′-hydroxy-4-{[2-(5-oxo-4,5-dihydro-1,3,4-oxadiazol-2-yl)ethyl]sulfanyl}-1,2,5-oxadiazole-3-carboximidamide], the half-inhibitory concentration (IC50) was 72.2 nM in assay [1] (setting [4]), 131 nM in assay [2] and 112 nM in assay [3].

On to `NS(=O)(=O)c1ccc(CCSc2nonc2/C(=N/O)Nc2ccc(F)c(Br)c2)cc1` [Example 71, N-(3-bromo-4-fluorophenyl)-N′-hydroxy-4-{[2-(4-sulfamoylphenyl)ethyl]sulfanyl}-1,2,5-oxadiazole-3-carboximidamide], for which the half-maximal inhibitory concentration (IC50) was found to be 407 nM in assay [1] (setting [4]), 109 nM in assay [2] and 91.2 nM in assay [3].

As to `CC(O)CSc1nonc1/C(=N/O)Nc1ccc(F)c(Br)c1` (stereo not drawn) [Example 18, (Z)-N-(3-bromo-4-fluorophenyl)-N′-hydroxy-4-((2-hydroxypropyl)thio)-1,2,5-oxadiazole-3-carboximidamide], the values for the IC50 in assay [1] (setting [4]), in assay [2] and in assay [3] were 58.4 nM, 64.2 nM and 87.9 nM, respectively.

For `CN(C)C(=O)CSc1nonc1C(=NO)Nc1ccc(F)c(Br)c1` [Example 111, 2-({4-[N-(3-bromo-4-fluorophenyl)-N′-hydroxycarbamimidoyl]-1,2,5-oxadiazol-3-yl}sulfanyl)-N,N-dimethylacetamide], the concentration for half-maximal inhibition (IC50) in assay [1] (IDO1 Enzyme Assay, IC50, nM) was 59.6 nM; in assay [2] it was 446 nM; in assay [3] it was 685 nM.

As for `ON=C(Nc1ccc(F)c(Br)c1)c1nonc1SCCc1cscn1` [Example 152, N-(3-bromo-4-fluorophenyl)-N′-hydroxy-4-{[2-(1,3-thiazol-4-yl)ethyl]sulfanyl}-1,2,5-oxadiazole-3-carboximidamide], the IC50 in assay [1] (IDO1 Enzyme Assay, IC50, nM) came out at 97.6 nM; in assay [2], 166 nM; in assay [3] it was 331 nM.

Turning to `OCCCCCCSc1nonc1/C(=N/O)Nc1ccc(F)c(Br)c1` [Example 53, N-(3-bromo-4-fluorophenyl)-N′-hydroxy-4-[(6-hydroxyhexyl)sulfanyl]-1,2,5-oxadiazole-3-carboximidamide], the results for the IC50 in assay [1] (setting [4]), in assay [2] and in assay [3] were 98.5 nM, 786 nM and 683 nM, respectively.

`Nc1c(NCCSc2nonc2/C(=N/O)Nc2ccc(F)c(Br)c2)c(=O)c1=O` [Example 73, 4-({2-[(2-amino-3,4-dioxocyclobut-1-en-1-yl)amino]ethyl}sulfanyl)-N-(3-bromo-4-fluorophenyl)-N′-hydroxy-1,2,5-oxadiazole-3-carboximidamide]: the concentration for half-maximal inhibition (IC50) is 27.2 nM in assay [1] (setting [4]), 376 nM in assay [2] and 106 nM in assay [3].

Turning to `O=C(CSc1nonc1C(=NO)Nc1ccc(F)c(Br)c1)NC1CCC1` [Example 114, 2-({4-[N-(3-bromo-4-fluorophenyl)-N′-hydroxycarbamimidoyl]-1,2,5-oxadiazol-3-yl}sulfanyl)-N-cyclobutylacetamide], the half-inhibitory concentration (IC50) in assay [1] (IDO1 Enzyme Assay, IC50, nM) is 36.9 nM; in assay [2], 97 nM; in assay [3], 148 nM.

Turning to `O/N=C(\Nc1ccc(F)c(Br)c1)c1nonc1SCC1CNC1` [Example 25, (Z)-4-((azetidin-3-ylmethyl)thio)-N-(3-bromo-4-fluorophenyl)-N′-hydroxy-1,2,5-oxadiazole-3-carboximidamide], the half-inhibitory concentration (IC50) in assay [1] (setting [4]) came to 92.2 nM; in assay [2] it was 152 nM; in assay [3], 150 nM.

As for `ON=C(Nc1ccc(F)c(Br)c1)c1nonc1SCCF` [Example 160, N-(3-bromo-4-fluorophenyl)-4-[(2-fluoroethyl)sulfanyl]-N′-hydroxy-1,2,5-oxadiazole-3-carboximidamide], the IC50 was 65.7 nM in assay [1] (IDO1 Enzyme Assay, IC50, nM); 61 nM in assay [2]; 126 nM in assay [3].

For `O=C(NCCSc1nonc1C(=NO)Nc1ccc(F)c(Br)c1)NCc1ccco1` [Example 131, N-(3-bromo-4-fluorophenyl)-4-[(2-{[(furan-2-ylmethyl)carbamoyl]amino}ethyl)sulfanyl]-N′-hydroxy-1,2,5-oxadiazole-3-carboximidamide], the IC50 was determined as 34.1 nM in assay [1] (IDO1 Enzyme Assay, IC50, nM); 66.7 nM in assay [2]; 167 nM in assay [3].

`CN1C[C@@H](CSc2nonc2/C(=N/O)Nc2ccc(F)c(Br)c2)NC1=O` [Example 122, N-(3-bromo-4-fluorophenyl)-N′-hydroxy-4-({[(4S)-1-methyl-2-oxoimidazolidin-4-yl]methyl}sulfanyl)-1,2,5-oxadiazole-3-carboximidamide]: the results for the half-maximal inhibitory concentration (IC50) in assay [1] (setting [4]), in assay [2] and in assay [3] were 37.7 nM, 23.3 nM and 26.7 nM, respectively.

On to `CC(=O)NCCSc1nonc1/C(=N/O)Nc1cccc(Br)c1` [Example 59, N-[2-({4-[N-(3-bromophenyl)-N′-hydroxycarbamimidoyl]-1,2,5-oxadiazol-3-yl}sulfanyl)ethyl]acetamide], for which the half-inhibitory concentration (IC50) in assay [1] (setting [4]) came out at 23.2 nM; in assay [2], 20.6 nM; in assay [3], 22.4 nM.

For `CC(C)Nc1c(NCCSc2nonc2/C(=N/O)Nc2ccc(F)c(Br)c2)c(=O)c1=O` [Example 94, N-(3-bromo-4-fluorophenyl)-N′-hydroxy-4-{[2-({2-[(1-methylethyl)amino]-3,4-dioxocyclobut-1-en-1-yl}amino)ethyl]sulfanyl}-1,2,5-oxadiazole-3-carboximidamide], the figures for the half-maximal inhibitory concentration (IC50) in assay [1] (setting [4]), in assay [2] and in assay [3] were 26.8 nM, 193 nM and 73 nM, respectively.
